Data: US6841533B1, “Conformationally constrained backbone cyclized interleukin-6 antagonists” (Peptor Limited, priority 1995, dated 2005)
Numbered stars: 1 amine (or outer) side, 2 acyl side, 3 side chain; on linkers, the order of the positions; unused ones are H or OH. Bridge positions count the residues as written; N and C are the ends. Square brackets hold non-standard residues; d marks the D form. Peptide text beside a SMILES is read from it. ξ: configuration not given here. Ala(Nα-(CH2)3CO) = C[C@@H](C(=O)[*:2])N(CCCC(=O)[*:3])[*:1]; Ala(Nα-(CH2)3NH) = C[C@@H](C(=O)[*:2])N(CCCN[*:3])[*:1]; Gly(Nα-(CH2)3CO) = O=C(CN(CCCC(=O)[*:3])[*:1])[*:2]; N(2-Aminoethyl)Gly = O=C(CN(CCN[*:3])[*:1])[*:2]; ξY = NC(Cc1ccc(O)cc1)C(=O)O

Tests used:
[1] = system: TF1 cells maintained with IL-6; experiment: Bioassay using TF1 cells maintained with IL-6; type: cell-based, human; parameters: TF1: unit not given here; conditions: for TF1: MPS crude peptides, Table 6
Excerpt: TF1 cells (human erythroleukemia) cells require IL-6 for growth and thus inhibition of IL-6 bioactivity results in cell death, similar to T1165 cells. The origin of all relevant molecules is human.
The problem associated with toxicity (false positive results), could be overcome in the TF1 based assay since these cells can be induced by additional cytokines which are unrelated to IL-6 (not using the gp130 signal transducer). It, is possible to induce the cells to grow with IL-6 and with additional cytokine e.g. GM-CSF. Specific inhibition of IL-6 bioactivity is therefore expected to register only in cells induced by IL-6 and not with GM-CSF. […] Assay procedure is based on the procedure described in Fourcin et al. (ibid). The amount of viable cells at the end of the assay is determined by staining the cells with WST reagent as well as by measuring thymidine corporation (^3H-T).
The libraries were screened for binding of soluble IL-6. The information obtained was used for synthesis of backbone cyclic peptides in MPS format. Analyses for biological activity were performed on the TF1 human cell line.
Since the endpoint of the bioassay used is cell death, there is a need to check the specificity of the killing action, and to examine whether the cell death is due to inhibition of the IL-6 signaling pathway. The peptide analogs were therefore analyzed for their ability to induce non-specific cell death when the same cells were maintained with GM-CSF (instead of IL-6) as growth factor.

B16.F10.9 melanoma cells = conditions: for B16F10.9 active at: theoretical crude concentration, MPS peptides; for concentration that fully blocks IL-6 activity: 200 ng/ml IL-6 and 125 ng/ml sIL-6R, three days, FIG. 2
Excerpt: The F10.9 sub-line of B16 (murine melanoma) expresses gp130 but not IL-6R. Addition of human IL-6 and human IL-6R, or a chimera of IL-6/IL-6R results in differentiation which is associated with growth arrest of the cells. Inhibition of IL-6 results in continued growth. Since the end point of this assay is cell growth rather than cell death, this assay system was used primarily in order to differentiate between suspected toxic effects observed on B9 or T1165 cells, and true inhibition of IL-6 activity.
Evaluation of the results in this assay is possible using two methods. One method uses vital dyes for monitoring cell growth. The second method comprises visual observation of the cell morphology and establishing a cut off point based on the following observations:
Cells which are not treated with IL-6 create a monolayer that covers almost all the surface area. Treatment with IL-6 causes growth arrest and a morphological change: the cells become very narrow and elongated as compared to the more spread out shape of the non-treated cells.
Peptides were added to B16.F10.9 melanoma cells in the presence of 200 ng/ml IL-6 and 125 ng/ml sIL-6R. Incubation for three days.

A375 cells = experiment: Bioassay using A375 cells, cytokines other than IL-6; type: cell-based, human; conditions: maximal inhibitory activity of IL-6 on A375 cells = 100%
Excerpt: The A375 are human melanoma cells. IL-6 induces differentiation of A375 cells which is associated with growth arrest similar to the phenomenon observed with the B16F10.9 murine melanoma cells. Thus, inhibition of IL-6 results in continued growth of the cells which is easily quantifiable. In such case toxicity of peptides would register as a false negative rather than false positive. This conditions is preferable during screening process. Second, since these are human cells, the molecules involved in the bio-response, i.e. IL-6, IL-6R and gp130 are all of human origin thus ensuring authenticity of the tested peptide bioactivity. Another advantage of the A375 cells is their ability to be induced by other cytokines that share the gp130 signal transducer, i.e. leukemia inhibitory factor (LIF) and oncostatine M (OSM). […] The availability of this assay system, allows us to test, the specificity of our IL-6 inhibitory peptides vs. other cytokines of the family, in an array of assays all using a single cell line. Assay performance is described in Savino et al. (ibid).

[2] = system: IL-6 mediated acute-phase response; experiment: IL-6 mediated acute-phase response (turpentine model); type: in vivo, mice; conditions: mice, turpentine, 1 or 10 mg/kg of peptide
Excerpt: The objective was to establish a simple first-line in-vivo model, for testing the activity of IL-6 inhibitors. The turpentine model was chosen based on the principal role that IL-6 plays in this inflammatory response.
Systemic and localized inflammation elicit a general reaction in the organism, known as the acute phase response, which includes fever, loss of body weight, hypoglycemia, and changes in the serum levels of several plasma proteins produced by the liver. IL-6 is an important mediator of the acute-phase reaction (see Heinrich et.al., Biochemistry J. 1 265:621, 1990 for a comprehensive review), together with IL-1 and TNF-α. It has been shown previously that sterile tissue damage caused by injection of turpentine induces an acute-phase reaction, and that IL-6 is an essential mediator of this response (Rokita et.al., Cytokine 5:454, 1993).
IL-6 knock-out (-/-) and matched wild-type (C57/Black; CB) mice were used. Sterile tissue damage was induced by subcutaneous injection of turpentine, 0.1 ml, into both hind limbs. IL-6 was determined in the serum by ELISA (QuantikineM, R&D). For liver acute-phase proteins, Fibrinogen was determined in citrated plasma, by the calcium method.
PTR 5045 (SEQ ID NO:75) was tested in this model in compare to the non-relevant control peptide PTR 4041 (SEQ ID NO:33) (Lys-GlyC2-Leu-Ile-Gln-Leu-Phe-GlyN3-Lys-Lys-NH2).

[3] = biological target: leukocyte inhibitory factor receptor (LIF-R); experiment: cell-based or functional assay

Molecule	TF1 [1]	B16F10.9 active at (B16.F10.9 melanoma cells)	also measured
C[C@@H](C(N)=O)N1CCCNC(=O)CCCN(C(=O)[C@@H](Cc2ccccc2)NC(=O)[C@H](CCCNC(=N)N)NC(=O)[C@H](CCCCN)NC(=O)[C@H](CCCNC(=N)N)NC(=O)[C@H](N)CCCCN)[C@@H](C)C(=O)N[C@@H](CCCCN)C(=O)N[C@@H](CCCNC(=N)N)C(=O)N[C@@H](Cc2ccc(O)cc2)C1=O [(D)Lys-Arg-Lys-Arg-(D)Phe-AlaC3-Lys-Arg-Tyr-AlaN3] (H-[dK]RKR[dF][Ala(Nα-(CH2)3CO)]KRY[Ala(Nα-(CH2)3NH)]-NH2; lactam 6-10)	55	62 µM	
CC(C)C[C@@H]1NC(=O)[C@H](C)N(C(=O)[C@H](Cc2ccccc2)NC(=O)[C@@H](CCCNC(=N)N)NC(=O)[C@H](CCCCN)NC(=O)[C@H](CCCNC(=N)N)NC(=O)[C@@H](N)CCCCN)CCCC(=O)NCCCN([C@@H](C)C(N)=O)C(=O)C(Cc2ccc(O)cc2)NC(=O)[C@H](CCCNC(=N)N)NC1=O (stereo partly drawn) [Lys-Arg-Lys-(D)Arg-Phe-AlaC3-Leu-Arg-BTyr-AlaN3] (H-KRK[dR]F[Ala(Nα-(CH2)3CO)]LR[ξY][Ala(Nα-(CH2)3NH)]-NH2; lactam 6-10)	85	<12 µM	
C[C@@H](C(N)=O)N1CCCNC(=O)CCCN(C(=O)[C@H](Cc2ccccc2)NC(=O)[C@H](CCCNC(=N)N)NC(=O)[C@H](CCCCN)NC(=O)[C@H](CCCNC(=N)N)NC(=O)[C@@H](N)CCCCN)[C@@H](C)C(=O)N[C@@H](CCCCN)C(=O)N[C@H](CCCNC(=N)N)C(=O)NC(Cc2ccc(O)cc2)C1=O (stereo partly drawn) [Lys-Arg-Lys-Arg-Phe-AlaC3-Lys-(D)Arg-BTyr-AlaN3] (H-KRKRF[Ala(Nα-(CH2)3CO)]K[dR][ξY][Ala(Nα-(CH2)3NH)]-NH2; lactam 6-10)	21	62 µM	
CC(C)C[C@@H]1NC(=O)CN(C(=O)[C@H](Cc2ccccc2)NC(=O)[C@H](CCCNC(=N)N)NC(=O)[C@H](CC(C)C)NC(=O)[C@H](CCCNC(=N)N)NC(=O)[C@@H](N)Cc2ccc(O)cc2)CCCC(=O)NCCN(CC(N)=O)C(=O)[C@H](Cc2ccc(O)cc2)NC(=O)[C@H](CCCNC(=N)N)NC1=O [PTR 5005, Tyr-Arg-Leu-Arg-Phe-GlyC3-Leu-Arg-Tyr-GlyN2] (H-YRLRF[Gly(Nα-(CH2)3CO)]LRY[N(2-Aminoethyl)Gly]-NH2; lactam 6-10)			activity on TF1 cells ([1]; in words): appears to be active; IC50 in the B16F10.9 cell assay (B16.F10.9 melanoma cells): around 10 μ/ml
CC(C)C[C@@H](NC(=O)[C@H](CCCNC(=N)N)NC(=O)[C@H](N)CCCCN)C(=O)N[C@H](CCCNC(=N)N)C(=O)N[C@H](Cc1ccccc1)C(=O)N1CCCC(=O)NCCCN([C@@H](C)C(N)=O)C(=O)[C@@H](Cc2ccc(O)cc2)NC(=O)[C@H](CCCNC(=N)N)NC(=O)[C@@H](CC(C)C)NC(=O)[C@@H]1C [PTR 5041, (D)Lys-Arg-(D) Leu-(D) Arg-(D)Phe-AlaC3-(D)Leu-Arg-(D)Tyr-AlaN3-NH2] (H-[dK]R[dL][dR][dF][Ala(Nα-(CH2)3CO)][dL]R[dY][Ala(Nα-(CH2)3NH)]-NH2; lactam 6-10)	92	47 µM	concentration that fully blocks IL-6 activity (B16.F10.9 melanoma cells): about 250 nM
CC(C)C[C@@H]1NC(=O)[C@H](C)N(C(=O)[C@@H](Cc2ccccc2)NC(=O)[C@@H](CCCNC(=N)N)NC(=O)[C@H](CCCCN)NC(=O)[C@H](CCCNC(=N)N)NC(=O)[C@@H](N)Cc2c[nH]c3ccccc23)CCCC(=O)NCCCN([C@@H](C)C(N)=O)C(=O)C(Cc2ccc(O)cc2)NC(=O)[C@H](CCCNC(=N)N)NC1=O (stereo partly drawn) [Trp-Arg-Lys-(D)Arg-(D)Phe-AlaC3-Leu-Arg-BTyr-AlaN3] (H-WRK[dR][dF][Ala(Nα-(CH2)3CO)]LR[ξY][Ala(Nα-(CH2)3NH)]-NH2; lactam 6-10)	41	<12 µM	
CC(C)C[C@@H]1NC(=O)[C@H](C)N(C(=O)[C@H](Cc2ccccc2)NC(=O)[C@@H](CCCNC(=N)N)NC(=O)[C@H](CCCCN)NC(=O)[C@H](CCCNC(=N)N)NC(=O)[C@@H](N)Cc2c[nH]c3ccccc23)CCCC(=O)NCCCN([C@@H](C)C(N)=O)C(=O)C(Cc2ccc(O)cc2)NC(=O)[C@H](CCCNC(=N)N)NC1=O (stereo partly drawn) [Trp-Arg-Lys-(D)Arg-Phe-AlaC3-Leu-Arg-BTyr-AlaN3] (H-WRK[dR]F[Ala(Nα-(CH2)3CO)]LR[ξY][Ala(Nα-(CH2)3NH)]-NH2; lactam 6-10; C-terminus assumed)	32	<12 µM	
CC(C)C[C@@H]1NC(=O)[C@H](C)N(C(=O)[C@@H](Cc2ccccc2)NC(=O)[C@@H](CCCNC(=N)N)NC(=O)[C@H](CCCCN)NC(=O)[C@H](CCCNC(=N)N)NC(=O)[C@@H](N)Cc2ccc(O)cc2)CCCC(=O)NCCCN([C@@H](C)C(N)=O)C(=O)C(Cc2ccc(O)cc2)NC(=O)[C@@H](CCCNC(=N)N)NC1=O (stereo partly drawn) [Tyr-Arg-Lys-(D)Arg-(D)Phe-AlaC3-Leu-(D)Arg-BTyr-AlaN3] (H-YRK[dR][dF][Ala(Nα-(CH2)3CO)]L[dR][ξY][Ala(Nα-(CH2)3NH)]-NH2; lactam 6-10)	19	47 µM	
(D)Lys-Arg-Lys-Arg-Phe-AlaC3-(D)Leu-(D)Arg-Tyr-AlaN3	27	not active	
(D)Lys-Arg-Lys-Arg-Phe-AlaC3-Leu-(D)Arg-(D)Tyr-AlaN3	19	not active	
(D)Lys-Arg-Lys-Arg-Phe-AlaC3-Leu-Arg-(D)Tyr-AlaN3	25	not active	
(D)Lys-Arg-Lys-Arg-Phe-AlaC3-Lys-Arg-(D)Tyr-AlaN3	21	not active	
(D)Tyr-Arg-Lys-Arg-Phe-AlaC3-Lys-(D)Arg-(D)Tyr-AlaN3	22	not active	
LIF: leukemia inhibitory factor, cytokine that shares the gp130 signal transducer			% Inhibition (relative to IL-6) (A375 cells; cytokine 1 ng/ml): 1%; % Inhibition (relative to IL-6) (A375 cells; cytokine 10 ng/ml): 2%
Lys-Arg-Leu-(D)Arg-(D)Phe-AlaC3-Lys-Arg-BTyr-AlaN3	22	not active	
Lys-GlyC2-Leu-Ile-Gln-Leu-Phe-GlyN3-Lys-Lys-NH2 (KGLIQLFGKK; not fully specified; backbone cyclization, C-amide; listed as Homo sapiens) [PTR 4041, reference compound]			Mean weight loss % [2]: −7.3%; Mean weight loss grams [2]: −2.51 grams; concentration that fully blocks IL-6 activity (B16.F10.9 melanoma cells): not active
leukemia inhibitory factor (LIF) (ligand)			% Inhibition (relative to IL-6) of A375 cells, LIF + LIFR at 10 ng/ml [3]: 45%
OSM: oncostatine M, cytokine that shares the gp130 signal transducer (protein, UniProt P13725 26-221, looked up) Oncostatin-M: AAIGSCSKEYRVLLGQLQKQTDLMQDTSRLLDPYIRIQGLDVPKLREHCRERPGAFPSEETLRGLGRRGFLQTLNATLGCVLHRLADLEQRLPKAQDLERSGLNIEDLEKLQMARPNILGLRNNIYCMAQLLDNSDTAEPTKAGRGASQPPTPTPASDAFQRKLEGCRFLHGYHRFMHSVGRVFSKWGESPNRSRR			% Inhibition (relative to IL-6) (A375 cells; cytokine 1 ng/ml): 94%; % Inhibition (relative to IL-6) (A375 cells; cytokine 10 ng/ml): 141%
